A word on the Cmax: it is the peak of the concentration-time curve. By half-life is commonly meant the time needed for the level to fall by half in the phase considered. As a reminder, the solubility (kinetic) is the concentration staying in solution when a stock, usually in DMSO, is diluted into the medium. One may read the pIC50 as the IC50 on a negative log10 scale, so that one unit is a factor of ten. In general, bioavailability refers to dose-corrected exposure relative to a reference, in per cent. A higher bioavailability goes with much systemic uptake. A word on the clearance: it is the volume of plasma or blood freed of the substance per unit of time. By AUC is commonly meant the area under the concentration-time curve, a measure of exposure. Higher therefore signals high exposure.

pIC50: −log10 of the molar value. Values after ≈ are worked out from the molar mass of the structure shown.

Series [1] deals with Haemophilus influenzae. In words: Antimicrobial activity against Haemophilus influenzae. Format: functional.
Series [2] in a line: Cmax in rat at 8.5 mg/kg, po. Format: ADME, organism-based. On the set-up: dose 8.5 mg/kg, route oral. The settings on record: in vivo.
Series [3] has as its system Streptococcus pneumoniae. In words: Antimicrobial activity against Streptococcus pneumoniae 1629. Format: functional.
Series [4] is described as follows: Half life in rat at 3.9 mg/kg, iv. It is filed as ADME, organism-based. Particulars: in vivo.
A short description of series [5]: Solubility of compound by chemiluminescent nitrogen detection assay. Format: physicochemical.
A further series deals with T1, Peptide deformylase (Staphylococcus aureus, UniProt P68826).
T1 sequence (P68826 whole entry): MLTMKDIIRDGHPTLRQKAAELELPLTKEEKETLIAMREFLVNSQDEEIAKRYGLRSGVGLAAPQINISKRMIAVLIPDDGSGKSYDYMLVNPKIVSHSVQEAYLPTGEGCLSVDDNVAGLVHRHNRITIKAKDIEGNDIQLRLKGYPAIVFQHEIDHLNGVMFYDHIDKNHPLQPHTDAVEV
In words: Inhibition of Staphylococcus aureus PDF by absorbance detection assay.

Series [6] deals with Staphylococcus aureus. The series is described as follows: Antimicrobial activity against Staphylococcus aureus Oxford. Format: functional.
Series [7] can be described thus: Inhibition of Haemophilus influenzae PDF by absorbance detection assay.
Series [8] is described as follows: Oral bioavailability in rat at 8.5 mg/kg. The settings on record: in vivo. Format: ADME, organism-based.
A short description of series [9]: Clearance in rat at 3.9 mg/kg, iv. Format: ADME, organism-based. Particulars: in vivo.
Series [10] in a line: Volume of distribution at steady state in rat at 3.9 mg/kg, iv. It is filed as ADME, organism-based. The settings on record: in vivo, read-out: Vdss.
Series [11] is described as follows: Chromatographic hydrophobicity index, log D of compound at pH 7.4. Format: physicochemical. The settings on record: buffer.
Series [12] can be described thus: Inhibition of Streptococcus pneumoniae PDF by absorbance detection assay.
Series [13] can be described thus: AUC in rat at 3.9 mg/kg, iv. The settings on record: in vivo. It is filed as ADME, organism-based.
The subject of series [14] is Streptococcus pneumoniae. The series is described as follows: Antimicrobial activity against Streptococcus pneumoniae. Format: functional.
Series [15] is described as follows: AUC in rat at 8.5 mg/kg, po. The settings on record: in vivo. Format: ADME, organism-based.
Series [16] relates to Staphylococcus aureus. The series is described as follows: Antimicrobial activity against Staphylococcus aureus. It is filed as functional.
In series [17] the test system is Haemophilus influenzae. In words: Antimicrobial activity against Haemophilus influenzae Q1. Format: functional.
The subject of series [18] is Streptococcus pneumoniae. The series is described as follows: Antimicrobial activity against Streptococcus pneumoniae Ery-2 in presence of clavulanic acid. It is filed as functional.
In series [19] the test system is Streptococcus pneumoniae. The series is described as follows: Antimicrobial activity against Streptococcus pneumoniae Ery-2 infected in respiratory tract infection rat model assessed as log reduction in bacterial CFU at 350 mg/kg, po BID dosed 1 hr post infection and measured for 96 hrs in presence of 50 mg/kg clavulanic acid. It is filed as functional.
Series [20] is described as follows: AUC in rat at 5 mg/kg, po. It is filed as ADME, organism-based. Particulars: in vivo.
A short description of series [21]: Oral bioavailability in rat at 5 mg/kg. It is filed as ADME, organism-based. Particulars: in vivo.
A short description of series [22]: AUC in rat at 3 mg/kg, iv. Particulars: in vivo. Format: ADME, organism-based.
Series [23] can be described thus: Half life in rat at 5 mg/kg, po. Format: ADME, organism-based. The settings on record: in vivo.
Series [24] can be described thus: Clearance in rat at 3 mg/kg, iv. It is filed as ADME, organism-based. Particulars: in vivo.
The nature of series [25]: Cmax in rat at 5 mg/kg, po. Format: ADME, organism-based. On the set-up: dose 5 mg/kg, route oral. Particulars: in vivo.
Series [26] has as its system Streptococcus pneumoniae. The series is described as follows: Antimicrobial activity against Streptococcus pneumoniae Ery-2. It is filed as functional.
In series [27] the test system is Streptococcus pneumoniae. In words: Antimicrobial activity against Streptococcus pneumoniae Ery-2 infected in respiratory tract infection rat model assessed as log reduction in bacterial CFU at 300 mg/kg, po BID dosed 1 hr post infection and measured for 96 hrs. It is filed as functional.
Series [28] deals with Streptococcus pneumoniae. The series is described as follows: Antimicrobial activity against Streptococcus pneumoniae Ery-2 infected in respiratory tract infection rat model assessed as log reduction in bacterial CFU at 150 mg/kg, po BID dosed 1 hr post infection and measured for 96 hrs. It is filed as functional.
A short description of series [29]: Half life in rat at 3 mg/kg, iv. Format: ADME, organism-based. The settings on record: in vivo.
Series [30] is described as follows: Volume of distribution at steady state in rat at 3 mg/kg, iv. Particulars: in vivo, read-out: Vdss. It is filed as ADME, organism-based.

On to `Cc1nc(NNC(=O)[C@H](CC2CCCC2)CN(O)C=O)c(F)c(N2CCN3CCOC[C@@H]3C2)n1` [LANOPEPDEN], for which the results for the MIC90 against Haemophilus influenzae [1], against Streptococcus pneumoniae [14] and against Staphylococcus aureus [16] were 2 µg/mL (≈ 4.17 µM), 1 µg/mL (≈ 2.09 µM) and 4 µg/mL (≈ 8.34 µM), respectively. Also, the Cmax in series [2] was 902 ng/mL. For the same molecule, the figures for the MIC with Streptococcus pneumoniae [3], against Staphylococcus aureus [6] and in the series with Haemophilus influenzae [17] were 1 µg/mL (≈ 2.09 µM), 2 µg/mL (≈ 4.17 µM) and 0.5 µg/mL (≈ 1.04 µM), respectively. The half-life in [4] is 0.7 h. Besides, the solubility (kinetic) in series [5] came out at 241 µM (≈ 116 µg/mL). In addition, the values for the pIC50 (against Peptide deformylase; in series [7]; in series [12]) were 7.92, 8.52 and 8.52, respectively. In addition, the bioavailability in series [8] stood at 91%. In series [9], this molecule registered a clearance of 88 mL/min/kg. Moreover, in series [10], the Vd came out at 2.5 L/kg. In series [11], this molecule displayed a CHI of 2.54. In addition, the AUC in series [13] is 720 ng·h/mL; in series [15], 1450 ng·h/mL.
As to `CC1(C)S[C@@H]2[C@H](NC(=O)[C@H](N)c3ccc(O)cc3)C(=O)N2[C@H]1C(=O)O` [AMOXICILLIN], the MIC in the series on Streptococcus pneumoniae [18] came to 0.03 µg/mL. For the same molecule, in the series with Streptococcus pneumoniae [19], the Activity was 5.2 log10CFU/ml.
For the molecule `CCc1nnc(NC(=O)[C@@H]2CCCNN2C(=O)[C@H](CC2CCCC2)CN(O)C=O)s1`, the MIC90 with Haemophilus influenzae [1] stood at 2 µg/mL (≈ 4.56 µM); with Streptococcus pneumoniae [14] it was 1 µg/mL (≈ 2.28 µM); against Staphylococcus aureus [16], 2 µg/mL (≈ 4.56 µM). Moreover, the figures for the AUC in [20] and in series [22] were 1580 ng·h/mL and 2140 ng·h/mL, respectively. The MIC against Streptococcus pneumoniae [3] was found to be 1 µg/mL (≈ 2.28 µM); in the series with Streptococcus pneumoniae [26] it was 0.5 µg/mL (≈ 1.14 µM); in the series on Staphylococcus aureus [6], 1 µg/mL (≈ 2.28 µM); against Haemophilus influenzae [17], 1 µg/mL (≈ 2.28 µM). The molecule also registered a kinetic solubility in [5] of 530 µM (≈ 232 µg/mL). In [21], this molecule registered a bioavailability of 36%. Moreover, the half-life in [23] is 4.7 h; in series [29], 6.7 h. This molecule returned a clearance in series [24] of 20 mL/min/kg. The molecule further came in with a Cmax in series [25] of 711 ng/mL. Besides, the pIC50 on Peptide deformylase was 9.00; in series [7] it was 8.70; in [12], 9.40. The values for the Activity in the series on Streptococcus pneumoniae [27] and in the series on Streptococcus pneumoniae [28] were 1.7 log10CFU/ml and 0.8 log10CFU/ml, respectively. In addition, the CHI in [11] stood at 3.38. The Vd in series [30] came out at 4 L/kg.

The record behind these values is ChEMBL document CHEMBL4433235, “Discovery of piperazic acid peptide deformylase inhibitors with in vivo activity for respiratory tract and skin infections” (Bioorg Med Chem Lett, 2019).
